Source: PubChem BioAssay (NCI)
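GI50 marks 50% less growth. TGI is the concentration that stops growth completely.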

How the values were obtained:
Assay in all cases: NCI anticancer screen, dose series, 384-well format
[1] = tested on: NCI-H226 lung
[2] = tested on: HCT-116 colon
[3] = tested on: MDA-MB-468 breast
[4] = tested on: ACHN renal
[5] = tested on: SN12C renal
[6] = tested on: RPMI-8226 leukemia
[7] = tested on: SNB-75 CNS
[8] = tested on: SF-268 CNS
[9] = tested on: SK-MEL-28 melanoma
[10] = tested on: OVCAR-3 ovarian
[11] = tested on: OVCAR-4 ovarian
[12] = tested on: T-47D breast
[13] = tested on: UACC-257 melanoma
[14] = tested on: SF-539 CNS
[15] = tested on: HCC-2998 colon
[16] = tested on: IGROV1 ovarian
[17] = tested on: NCI-H322M lung
[18] = tested on: SR leukemia
[19] = tested on: MDA-MB-231 breast
[20] = tested on: HS 578T breast
[21] = tested on: PC-3 prostate
[22] = tested on: SK-MEL-5 melanoma
[23] = tested on: MDA-MB-435 melanoma
[24] = tested on: U251 glioblastoma
[25] = tested on: M14 melanoma
[26] = tested on: HOP-62 NSCLC
[27] = tested on: SK-OV-3 ovarian
[28] = tested on: EKVX NSCLC
[29] = tested on: TK-10 renal
[30] = tested on: SNB-19 CNS
[31] = tested on: HCT-15 colon
[32] = tested on: KM12 colon
[33] = tested on: COLO 205 colon
[34] = tested on: BT-549 breast
[35] = tested on: LOX IMVI melanoma
[36] = tested on: UACC-62 melanoma
[37] = tested on: HOP-92 NSCLC
[38] = tested on: RXF 393 renal
[39] = tested on: MCF7 breast
[40] = tested on: CAKI-1 renal
[41] = tested on: MOLT-4 leukemia
[42] = tested on: NCI-H522 lung
[43] = tested on: HT29 colon
[44] = tested on: A498 renal
[45] = tested on: HL-60(TB) leukemia
[46] = tested on: DU-145 prostate
[47] = tested on: A549 NSCLC
[48] = tested on: NCI-H460 NSCLC
[49] = tested on: NCI/ADR-RES ovarian

N#CCCNc1nonc1-c1nc2ccccc2n1CC(=O)c1ccc(N)cc1
GI50 [1]: < 0.01 µM
TGI [1]: 0.0228 µM
GI50 [2]: < 0.01 µM
TGI [2]: > 100 µM
GI50 [3]: < 0.01 µM
TGI [3]: < 0.01 µM
GI50 [4]: < 0.01 µM
TGI [4]: 37.3 µM
GI50 [5]: 0.0122 µM
TGI [5]: 0.0882 µM
GI50 [6]: < 0.01 µM
TGI [6]: 0.0222 µM
GI50 [7]: 0.012 µM
TGI [7]: > 100 µM
GI50 [8]: < 0.01 µM
TGI [8]: 51.1 µM
GI50 [9]: 0.101 µM
TGI [9]: > 100 µM
GI50 [10]: < 0.01 µM
TGI [10]: 0.014 µM
GI50 [11]: < 0.01 µM
TGI [11]: 2.33 µM
GI50 [12]: 1.87 µM
TGI [12]: > 100 µM
GI50 [13]: < 0.01 µM
TGI [13]: > 100 µM
GI50 [14]: < 0.01 µM
TGI [14]: 0.0257 µM
GI50 [15]: 0.015 µM
TGI [15]: 0.0475 µM
GI50 [16]: 0.0195 µM
TGI [16]: 39.3 µM
GI50 [17]: 0.0531 µM
TGI [17]: > 100 µM
GI50 [18]: < 0.01 µM
TGI [18]: < 0.01 µM
GI50 [19]: 0.059 µM
TGI [19]: > 100 µM
GI50 [20]: < 0.01 µM
TGI [20]: 0.0114 µM
GI50 [21]: 0.0159 µM
TGI [21]: > 100 µM
GI50 [22]: < 0.01 µM
TGI [22]: 0.017 µM
GI50 [23]: < 0.01 µM
TGI [23]: < 0.01 µM
GI50 [24]: < 0.01 µM
TGI [24]: 0.0407 µM
GI50 [25]: < 0.01 µM
TGI [25]: 0.021 µM
GI50 [26]: < 0.01 µM
TGI [26]: 0.503 µM
GI50 [27]: < 0.01 µM
TGI [27]: > 100 µM
GI50 [28]: < 0.01 µM
TGI [28]: > 100 µM
GI50 [29]: < 0.01 µM
TGI [29]: > 100 µM
GI50 [30]: < 0.01 µM
TGI [30]: 0.092 µM
GI50 [31]: 0.0167 µM
TGI [31]: 0.0486 µM
GI50 [32]: < 0.01 µM
TGI [32]: > 100 µM
GI50 [33]: 0.0207 µM
TGI [33]: 0.0566 µM
GI50 [34]: < 0.01 µM
TGI [34]: 0.035 µM
GI50 [35]: 0.019 µM
TGI [35]: 0.0442 µM
GI50 [36]: < 0.01 µM
TGI [36]: > 100 µM
GI50 [37]: 0.0305 µM
TGI [37]: > 100 µM
GI50 [38]: < 0.01 µM
TGI [38]: 10.3 µM
GI50 [39]: < 0.01 µM
TGI [39]: > 100 µM
GI50 [40]: < 0.01 µM
TGI [40]: > 100 µM
GI50 [41]: 0.0192 µM
TGI [41]: 0.0337 µM
GI50 [42]: < 0.01 µM
TGI [42]: < 0.01 µM
GI50 [43]: 0.021 µM
TGI [43]: > 100 µM
GI50 [44]: < 0.01 µM
TGI [44]: 0.0365 µM
GI50 [45]: < 0.01 µM
TGI [45]: 0.016 µM
GI50 [46]: 0.0208 µM
TGI [46]: 0.0474 µM
GI50 [47]: 0.0227 µM
TGI [47]: > 100 µM
GI50 [48]: < 0.01 µM
TGI [48]: 0.02 µM
GI50 [49]: < 0.01 µM
TGI [49]: < 0.01 µM
